Assay results as given in EP1043336A2, “Stereospecific antibodies for imidazolinone herbicides” (The Regents of the University of California, priority 1999, dated 2000).

Key:
Type in all cases: binding, mouse
[1] = tested on: panel of monoclonal antibodies (MAbs); test: Detection of imidazolinones by the panel of MAbs (EIA)
Experimental: EIAs were done essentially as described by Karu et al (1994). For indirect EIAs, hapten-protein conjugates were adsorbed to wells of Immulon 2™ 96-well plates (Dynatech) in 0.1 mL of coating buffer (0.015 M Na2CO3 ― 0.035 M NaHCO3 ―0.003 M NaN3, pH 9.6). PBS-Tween containing 0.05% gelatin, 0.45 micron-filtered, was used as the diluent for antibodies and antibody-analyte mixtures, and as a blocking solution to prevent adventitious binding. The detecting antibody for the indirect EIAs was alkaline phosphatase conjugated goat anti-mouse IgG and IgM The substrate solution for color development was p-nitrophenyl phosphate 1 mg/mL, in 10% (w/v) diethanolamine-HCl, pH 9.8 ― 0.5 mM MgCl2 ― 3 mM NaN3. • 1. Indirect competition EIA. Indirect competition EIA (immobilized hapten conjugate) was used to evaluate the responses of mice, screen the MAbs, and quantify imidazolinone analytes. Optimal amounts of imidazolinone-BSA or -OVA conjugate for plate coating and dilutions for the hybridoma culture supernate or antiserum were determined by checkerboard assay. To perform the assay, wells were coated overnight at 4°C with a limiting amount of conjugate in 0.1 mL of coating buffer. Imidazolinone standards (0.5 to 5000 ppb) or unknowns were mixed with a limiting amount of antiserum or hybridoma culture fluid in the diluent and incubated overnight at 4°C in tightly sealed polypropylene tubes. The coated wells were washed and blocked with 0.2 mL of 0.05% gelatin in PBS-Tween for 30 minutes at room temperature. After another wash, aliquots (0.1 mL) of the antibody-analyte mixture were added to wells, and the remainder of the assay was performed as previously described (Karu et al., 1994). • 2. Direct competition EIA. Direct EIAs were performed by capturing the MAb on microwells and allowing the analyte to compete with a HRP-conjugated hapten for binding. Bound HRP-conjugate was then detected with a commercial HRP substrate. The sensitivity of this assay was enhanced by use of a commercial enzymatic signal amplification kit (GIBCO-BRL). Wells were coated with 200 or 500 ng of affinity-purified goat anti-mouse IgG or anti-mouse IgG Fc in the coating buffer at 4°C overnight. The next day, the wells were washed and blocked with PBS-Tween-gelatin for 30 minutes at room temperature, and then incubated for 1.5 hours at room temperature with hybridoma culture supernate. The plates were washed with PBS-Tween, and 0.1 mL of diluent containing the analyte and a limiting amount of biotinylated imidazolinone was added for 1.5 h at room temperature. The wells were washed three times with PBS-Tween, and Extravidin-alkaline phosphatase conjugate (Sigma) was then added for 30 minutes at room temperature. The plates were washed again with TBS (0.05 M Tris-HCl, pH 7.5,― 0.15 M NaCl) to remove remaining inorganic phosphate, which can inhibit the GIBCO-BRL EIA Amplification system. Substrate solution for the amplification step (0.05 mL) was added for 15 minutes at room temperature, followed by 0.05 mL of the enzymatic amplifying solution and chromogen. Color development at 492 nm was recorded. • 3. EIA Data Analysis. Color development was monitored on a Multiskan EIA reader (Flow Laboratories) interfaced with a Macintosh computer, and the rates of the reaction were calculated by linear regression. Competition EIA dose- response curves were fitted with a 4-parameter logistic equation (Karu et al., 1994).

MAb 3A2 [2] = test: BIAcore surface plasmon resonance, equilibrium dissociation constant; details: racemic hapten conjugate
Experimental: (§1) 1. Binding Kinetics. The equilibrium dissociation constants (KD) for MAbs 3A2 and 3A5 were measured by kinetic exclusion fluoroimmunoassay (KinExA) (Blake, D. A., et al. 1997. Characterization of a metal-specific monoclonal antibody. In: Immunochemical Technology for Environmental Applications (ACS Symposium Series 657), eds. DS Aga, EM Thurmann, pp. 49-60. Washington, D.C.: American Chemical Society.), and also in a Pharmacia BIAcore surface plasmon resonance instrument (Malmborg, A.-C. and Borrebaeck, C. A. K. 1995. BIAcore as a tool in antibody engineering. J. Immunol. Methods 183: 7-13.). Since the hapten conjugates used in these rate studies were racemic mixtures, the dissociation constants obtained can only be a median rate for the different chiral isomers.
(§2) The KinExA directly measures free antibody in solution equilibrium by trapping it on beads coated with hapten conjugate. […] 2. […] 4.

[3] = biological target: MAb 3A5 (VH and VL N-termini SEQ.ID NOS. 1 and 2); test: as above; details: racemic hapten conjugate
Experimental: as §1, §2

MAb 3A2 [4] = test: Kinetic exclusion fluoroimmunoassay (KinExA), equilibrium dissociation constant; details: hapten conjugate 16-BSA, racemic hapten conjugate
Experimental: as §1, §2

[5] = biological target: MAb 3A5 (VH and VL N-termini SEQ.ID NOS. 1 and 2); test: as above; details: hapten conjugate 16-BSA, racemic hapten conjugate
Experimental: as §1, §2

For `CCc1cnc(C2=NC(C)(C(C)C)C(=O)N2)c(C(=O)O)c1` (stereo not shown) [imazethapyr, 5-ethyl-2-(4-isopropyl-4-methyl-5-oxo-2-imidazolin-2-yl) nicotinic acid], the detection range [1] was 3 to 30 ng/mL, the Kd (MAb 3A2 [2]; hapten conjugate 16-OA) was 24.7 nM and the Kd (MAb 3A2 [2]; hapten conjugate 17-OA) was 51.6 nM. It also gave a Kd ([3]; hapten conjugate 16-OA) of 9.6 nM, a Kd ([3]; hapten conjugate 17-OA) of 10.8 nM and a Kd (MAb 3A2 [4]) of 11.4 nM. The Kd [5] was 73 nM.
